From publication PMC9817970 (Cancers, 2022)
Values joined by “and” are separate entries in the source; they are usually repeats but may differ in a detail not shown here. Equal entries are not always repeated.

Tests used:
c-KIT V560G/D816V = biological target: T1, c-KIT V560G/D816V (Homo sapiens, UniProt P10721, D816V/V560G); test: ADP-Glo kinase assay on c-KIT V560G/D816V; assay type: biochemical
T1 construct: purchased Promega VA7063
Protocol: (§1) Biochemical kinase assays on c-KIT protein kinase were performed at Reaction Biology Corp. (San Diego, CA, USA). […] The kinase assay followed the manufacturer’s instruction. IC50 values were calculated by GraphPad prism 8.0 software (GraphPad Software, San Diego, CA, USA).

GIST-T1 cells [1] = test: Cell viability assay (CellTiter-Glo); assay type: cell-based; conditions: Homo sapiens, GISTT1; 72 h; concentration causing half-maximal growth inhibition
Protocol: (§2) GIST-T1 (Cosmobio, Tokyo, Japan, # PMC-GIST01C-COS) cells were cultured in DMEM (Welgene, # LM001-05) and HMC1.2 (Merck, Darmstadt, Germany, # SCC062) cells were cultured in IMDM (Welgene, # LM004-01). Parental Ba/F3 (DSMZ, Braunschweig, Germany, # ACC300) cells were cultured in RPMI (Welgene, # LM011-51) with 10 ng IL-3/mL (Enzo, # ALX-201-821). The culture media was supplemented with 10% fetal bovine serum and 1% penicillin/streptomycin solution. The cells were maintained in a humidified atmosphere containing 5% CO2 at 37 °C.
(§3) Cells (GIST-T1: 5.0 × 10^3; HMC1.2: 1 × 10^4) were seeded in 96-well plates. Each compound was treated in each well at 10 dose points of 3-fold serial dilution. After treatment with each compound for 72 h, CellTiter-Glo solution (Promega, # G7572) was added to each well. Anti-proliferation activity was measured the luminescence using a 96-well plate reader (EnVision 2013).

HMC1.2 cells [2] = test: Cell viability assay (CellTiter-Glo); assay type: cell-based, human; conditions: Homo sapiens, 72 h
Protocol: as §2, §3

parental Ba/F3 cells = test: Anti-proliferative activity on Ba/F3 cells; assay type: cell-based; conditions: Mus musculus, BaF3
Protocol: as §2, §3

[3] = test system: c-KIT auto-phosphorylation in HMC1.2 cells; test: Western blot of c-KIT signaling; assay type: cell-based, human; conditions: 10 μM
Protocol: (§4) Cells were harvested and lysed using RIPA buffer containing 50 mM HEPES (pH 7.4), 1% Triton X-100, 2 mM EDTA, 150 mM NaCl, 2.5 mM NaF, 5 mM Na3VO4, and protease inhibitor cocktail tablet (Roche, # 11–878-580–001). Proteins were separated and transferred to an NC membrane. The membranes were blocked using 5% skim milk in TBS-T buffer. The p-c-KIT (Tyr703, # 3073), p-AKT (Ser473, # 9271), p-ERK (Thr202/Tyr204, # 8544), ERK (# 4695), p-PLCγ (Tyr783, # 14008), p-STAT3 (Tyr705, # 4074), and PARP (# 9542) antibodies were obtained from Cell Signaling Technologies. The β-actin (# sc-47778) and STAT3 (# sc-482) antibodies were obtained from Santa Cruz Biotechnology. AKT (A18120) antibody was purchased from ABclonal. Each primary antibody was incubated overnight at 4 °C. The secondary antibody (GenDEPOT) was incubated for 1 h at room temperature. Proteins were detected using ECL substrate.

[4] = test system: phosphorylated c-KIT (Tyr703) and downstream signaling in GIST-T1 cells; test: Western blot of c-KIT signaling; assay type: cell-based, human
Protocol: as §4

[5] = test system: c-KIT auto-phosphorylation in c-KIT D816V Ba/F3 cells; test: Western blot of c-KIT signaling; assay type: cell-based; conditions: 10 μM
Protocol: as §4

c-KIT D816V Ba/F3 cells = test: Apoptosis analysis (annexinV/PI flow cytometry); assay type: cell-based; conditions: c-KIT D816V Ba/F3, 1 μM
Protocol: (§5) After compound treatment in GIST-T1 and HMC1.2 cells for 24 h, cells were fixed with 70% cold ethanol. Then, cells were incubated with 50 μg propidium iodide/mL solution (PI, Sigma) containing 1 mg RNase A/mL for 30 min in the dark. Cell cycle arrest was analyzed (BD Accuri), and data were processed using BD Accuri^TM C6 software. For apoptosis analysis, compound treatment for 24–48 h, cells were harvested and stained with annexinV and PI solution. 1 × 10^5 cells were analyzed using flow cytometric analysis.

GIST-T1 cells [6] = test: Cell cycle arrest analysis (PI flow cytometry); assay type: cell-based, human; conditions: GIST-T1, 0.01 μM
Protocol: as §5

HMC1.2 cells [7] = test: Cell cycle arrest analysis (PI flow cytometry); assay type: cell-based, human; conditions: HMC1.2, 0.5 μM, 24 h
Protocol: as §5

GIST-T1 cells [8] = test: Migration (wound healing) assay; assay type: cell-based, human; conditions: GIST-T1, 0.005 μM and 0.05 μM, 36 h
Protocol: GIST-T1 cells were seeded in 6-well plates at 2 × 10^6 cells. Next day, cells were washed with PBS and wounded in the center of each well. Then, GIST-T1 cells were washed with PBS and added to fresh DMEM.

GIST-T1 cells [9] = test: Invasion assay (Transwell); assay type: cell-based, human; conditions: GIST-T1, 0.05 μM, 48 h
Protocol: The cell invasion assay was performed using Transwell membrane filter inserts (Corning Costar Corp., Corning, NY, USA). GIST-T1 cells were then suspended in serum-free DMEM at 2 × 10^6 cells and seeded in the upper chambers. In the lower chambers, the DMEM medium containing 10% FBS was added. After 48 h, the cells migrating down the membrane were stained with crystal violet.

c-KIT [10] = biological target: T2, c-KIT (Homo sapiens, UniProt P10721); test: Kinase panel profiling; assay type: biochemical; set-up: purchased Reaction Biology Corp; conditions: 10 μM ATP
Protocol: Kinase panel profiling was conducted by Reaction Biology Corp. (San Diego, CA, USA). A single dose (1.0 μM) of 6r was tested against 371 recombinant human kinases in the presence of 10 μM ATP.

c-KIT [11] = biological target: T2, c-KIT; test: Radiometric biochemical kinase assay on c-KIT; set-up: purchased Reaction Biology Corp. (contract assay service)
Protocol: as §1
Enzymatic inhibitory activities of all synthesized thiazolo[5,4-b]pyridine derivatives against c-KIT were measured using radiometric biochemical kinase assays (Table 1). We first explored the R1 group of the thiazolo[5,4-b]pyridine scaffold.

In the case of Cc1ccc(NC(=O)c2ccc(CN3CCN(C)CC3)c(C(F)(F)F)c2)cc1-c1cnc2sc(N)nc2c1 [6r], the IC50 (c-KIT V560G/D816V; ADP-Glo kinase assay, 10 μM ATP) is reported as 4.77 ± 0.38 µM, the “fold higher enzymatic inhibitory activity against c-KIT V560G/D816V compared with imatinib” value (c-KIT V560G/D816V; versus imatinib) is reported as 4.9- to 8.0 fold and 8.0 fold and the GI50 (GIST-T1 cells [1]) is reported as 0.01 µM. For the same molecule, the GI50 (HMC1.2 cells [2]) was 1.15 ± 0.96 µM, the GI50 (parental Ba/F3 cells) was 8.06 ± 0.57 µM and the c-KIT auto-phosphorylation [3] was “completely inhibited”. The “levels of phosphorylated c-KIT (Tyr703) and downstream mediators p-AKT, p-ERK, p-PLCγ, p-STAT3” value [4] was “remarkably inhibited”, the c-KIT auto-phosphorylation [5] was “completely inhibited” and the “production of apoptotic cells” value (c-KIT D816V Ba/F3 cells) was “remarkably induced”. The “G0/G1 arrest induced compared to control” value (GIST-T1 cells [6]) was 25–35%, the “G0/G1 arrest compared with imatinib” value (HMC1.2 cells [7]) was “more strongly” and the “cell migration decreased compared to control” value (GIST-T1 cells [8]) was 50–70%. The invasion capability (GIST-T1 cells [9]) was “significantly suppressing”, the inhibition at 1 µM (c-KIT [10]) was 98.7% and the IC50 (c-KIT [11]; read-out: IC50 against c-KIT) was 0.14 µM. The “fold enhanced c-KIT inhibitory activity compared to 6m” value (c-KIT [11]; versus 6m) was 15.5 fold and the “fold higher c-KIT inhibitory activity than imatinib” value (c-KIT [11]; versus imatinib) was 1.9 fold.
